Read-outs that look alike come from different tables or passages of the source.
Tested on: CD8+ T cells
Assay: In vitro T-cell priming assay (aAPCs loaded with peptide/MHC and anti-CD28, pMHC multimer readout)
Format: cell-based, human
Conditions: for Wells: positive wells
Source text: In order to obtain information regarding the immunogenicity of the TUMAPs of the present invention, we performed investigations using an in vitro T-cell priming assay based on repeated stimulations of CD8+ T cells with artificial antigen presenting cells (aAPCs) loaded with peptide/MHC complexes and anti-CD28 antibody.
In order to perform in vitro stimulations by artificial antigen presenting cells loaded with peptide-MHC complex (pMHC) and anti-CD28 antibody, we first isolated CD8+ T cells from fresh HLA-A*02 leukapheresis products via positive selection using CD8 microbeads (Miltenyi Biotec, Bergisch-Gladbach, Germany) of healthy donors obtained from the Transfusion Medicine Tuebingen, Germany, after informed consent.
Isolated CD8+ lymphocytes or PBMCs were incubated until use in T-cell medium (TCM) consisting of RPMI-Glutamax (Invitrogen, Karlsruhe, Germany) supplemented with 10% heat inactivated human AB serum (PAN-Biotech, Aidenbach, Germany), 100 U/ml Penicillin/100 μg/ml Streptomycin (Cambrex, Cologne, Germany), 1 mM sodium pyruvate (CC Pro, Oberdorla, Germany), 20 μg/ml Gentamycin (Cambrex). 2.5 ng/ml IL-7 (PromoCell, Heidelberg, Germany) and 10 U/ml IL-2 (Novartis Pharma, Nurnberg, Germany) were also added to the TCM at this step.
Generation of pMHC/anti-CD28 coated beads, T-cell stimulations and readout was performed in a highly defined in vitro system using four different pMHC molecules per stimulation condition and 8 different pMHC molecules per readout condition.
All pMHC complexes used for aAPC loading and cytometric readout were derived from UV-induced MHC ligand exchange (Rodenko et al., 2006) with minor modifications. In order to determine the amount of pMHC monomer obtained by exchange we performed streptavidin-based sandwich ELISAs according to (Rodenko et al., 2006).
The purified co-stimulatory mouse IgG2a anti human CD28 Ab 9.3 (Jung et al., 1987) was chemically biotinylated using Sulfo-N-hydroxysuccinimidobiotin as recommended by the manufacturer (Perbio, Bonn, Germany). Beads used were 5.6 μm diameter streptavidin coated polystyrene particles (Bangs Laboratories, Ill., USA).
pMHC used for positive and negative control stimulations were A*0201/MLA-001 (peptide […] from modified Melan-A/MART-1) and A*0201/DDX5-001 ([…] from DDX5), respectively.
800.000 beads/200 μl were coated in 96-well plates in the presence of 4×12.5 ng different biotin-pMHC, washed and 600 ng biotin anti-CD28 were added subsequently in a volume of 200 μl. Stimulations were initiated in 96-well plates by co-incubating 1×10^6 CD8+ T cells with 2×10^5 washed coated beads in 200 μl TCM supplemented with 5 ng/ml IL-12 (PromoCell) for 3-4 days at 37° C. Half of the medium was then exchanged by fresh TCM supplemented with 80 U/ml IL-2 and incubating was continued for 3-4 days at 37° C. This stimulation cycle was performed for a total of three times. For the pMHC multimer readout using 8 different pMHC molecules per condition, a two-dimensional combinatorial coding approach was used as previously described (Andersen et al., 2012) with minor modifications encompassing coupling to 5 different fluorochromes. Finally, multimeric analyses were performed by staining the cells with Live/dead near IR dye (Invitrogen, Karlsruhe, Germany), CD8-FITC antibody clone SK1 (BD, Heidelberg, Germany) and fluorescent pMHC multimers. For analysis, a BD LSRII SORP cytometer equipped with appropriate lasers and filters was used. Peptide specific cells were calculated as percentage of total CD8+ cells. Evaluation of multimeric analysis was done using the FlowJo software (Tree Star, Oreg., USA). In vitro priming of specific multimer+CD8+ lymphocytes was detected by comparing to negative control stimulations.

[1] = in vitro immunogenicity, trifluoro-acetate salts of the peptides
[2] = in vitro immunogenicity, responding healthy donors, trifluoro-acetate salts of the peptides

1 (ILFEINPKL; listed as Homo sapiens) [compound 1]
Wells [1]: + (<20% = +) | Donors [2]: ++ (20%-49% = ++)

2 (KIQEMQHFL; listed as Homo sapiens) [compound 2]
Wells [1]: + (<20% = +) | Donors [2]: ++ (20%-49% = ++)

3 (ALDENLHQL; listed as Homo sapiens) [compound 3]
Wells [1]: + (<20% = +) | Donors [2]: ++ (20%-49% = ++)

4 (NLIEKSIYL; listed as Homo sapiens) [compound 4]
Wells [1]: + (<20% = +) | Donors [2]: ++ (20%-49% = ++)

7 (TLWYRAPEV; listed as Homo sapiens) [compound 7]
Wells [1]: ++ (20%-49% = ++) | Donors [2]: ++++ (>70 = ++++)

8 (SMSGYDQVL; listed as Homo sapiens) [compound 8]
Wells [1]: + (<20% = +) | Donors [2]: ++ (20%-49% = ++)

9 (ALMDKEGLTAL; listed as Homo sapiens) [compound 9]
Wells [1]: + (<20% = +) | Donors [2]: + (<20% = +)

10 (VLSVVEVTL; listed as Homo sapiens) [compound 10]
Wells [1]: + (<20% = +) | Donors [2]: ++ (20%-49% = ++)

11 (VLLPVEVATHYL; listed as Homo sapiens) [compound 11]
Donors: 100% | Wells [1]: ++ (20%-49% = ++) | Donors [2]: ++++ (>70 = ++++)

15 (KLAVALLAA; listed as Homo sapiens) [compound 15]
Wells [1]: ++ (20%-49% = ++) | Donors [2]: ++ (20%-49% = ++)

16 (TVIGFLLPFA; listed as Homo sapiens) [compound 16]
Wells [1]: + (<20% = +) | Donors [2]: ++ (20%-49% = ++)

18 (TLYPHTSQV; listed as Homo sapiens) [compound 18]
Wells [1]: + (<20% = +) | Donors [2]: +++ (50%-70%, +++)

19 (AVVEFLTSV; listed as Homo sapiens) [compound 19]
Wells [1]: + (<20% = +) | Donors [2]: ++ (20%-49% = ++)

21 (AILDTLYEV; listed as Homo sapiens) [compound 21]
Wells [1]: ++ (20%-49% = ++) | Donors [2]: ++ (20%-49% = ++)

22 (FLIPIYHQV; listed as Homo sapiens) [compound 22]
Wells [1]: + (<20% = +) | Donors [2]: +++ (50%-70%, +++)

24 (FLVDGSWSV; listed as Homo sapiens) [compound 24]
Wells [1]: + (<20% = +) | Donors [2]: ++ (20%-49% = ++)

30 (KIYNEFISV; listed as Homo sapiens) [compound 30]
Wells [1]: + (<20% = +) | Donors [2]: ++ (20%-49% = ++)

31 (AIDGNNHEV; listed as Homo sapiens) [compound 31]
Wells [1]: + (<20% = +) | Donors [2]: +++ (50%-70%, +++)

32 (KLSWDLIYL; listed as Homo sapiens) [compound 32]
Wells [1]: + (<20% = +) | Donors [2]: +++ (50%-70%, +++)

33 (ALLRTVVSV; listed as Homo sapiens) [compound 33]
Wells [1]: + (<20% = +) | Donors [2]: +++ (50%-70%, +++)

35 (VLFPNLKTV; listed as Homo sapiens) [compound 35]
Wells [1]: + (<20% = +) | Donors [2]: ++ (20%-49% = ++)

37 (VLAPLFVYL; listed as Homo sapiens) [compound 37]
Donors: 100% | Wells [1]: + (<20% = +) | Donors [2]: ++++ (>70 = ++++)

38 (SLHFLILYV; listed as Homo sapiens) [compound 38]
Wells [1]: + (<20% = +) | Donors [2]: ++ (20%-49% = ++)

39 (RLLDSVSRL; listed as Homo sapiens) [compound 39]
Wells [1]: + (<20% = +) | Donors [2]: ++ (20%-49% = ++)

40 (GLTDNIHLV; listed as Homo sapiens) [compound 40]
Wells [1]: + (<20% = +) | Donors [2]: ++ (20%-49% = ++)

42 (SLWGGDVVL; listed as Homo sapiens) [compound 42]
Donors: 100% | Wells [1]: ++ (20%-49% = ++) | Donors [2]: ++++ (>70 = ++++)

43 (ALFPHLLQPV; listed as Homo sapiens) [compound 43]
Wells [1]: + (<20% = +) | Donors [2]: +++ (50%-70%, +++)

44 (NLLAEIHGV; listed as Homo sapiens) [compound 44]
Wells [1]: + (<20% = +) | Donors [2]: ++ (20%-49% = ++)

45 (AIMGFIGFFV; listed as Homo sapiens) [compound 45]
Wells [1]: + (<20% = +) | Donors [2]: + (<20% = +)

46 (TLTNIIHNL; listed as Homo sapiens) [compound 46]
Wells [1]: + (<20% = +) | Donors [2]: +++ (50%-70%, +++)

47 (GVLENIFGV; listed as Homo sapiens) [compound 47]
Wells [1]: + (<20% = +) | Donors [2]: ++ (20%-49% = ++)

48 (GLIEIISNA; listed as Homo sapiens) [compound 48]
Wells [1]: + (<20% = +) | Donors [2]: + (<20% = +)

52 (ALLERGYSL; listed as Homo sapiens) [compound 52]
Wells [1]: + (<20% = +) | Donors [2]: + (<20% = +)

53 (YLPHAPPFA; listed as Homo sapiens) [compound 53]
Wells [1]: ++ (20%-49% = ++) | Donors [2]: ++ (20%-49% = ++)

54 (KLVEFDFLGA; listed as Homo sapiens) [compound 54]
Wells [1]: + (<20% = +) | Donors [2]: ++ (20%-49% = ++)

55 (SLADFMQEV; listed as Homo sapiens) [compound 55]
Wells [1]: + (<20% = +) | Donors [2]: ++ (20%-49% = ++)

56 (SLYKGLLSV; listed as Homo sapiens) [compound 56]
Donors: 100% | Wells [1]: ++ (20%-49% = ++) | Donors [2]: ++++ (>70 = ++++)

57 (GLAEDIDKGEV; listed as Homo sapiens) [compound 57]
Wells [1]: + (<20% = +) | Donors [2]: ++ (20%-49% = ++)

59 (ILVSWLPRL; listed as Homo sapiens) [compound 59]
Wells [1]: + (<20% = +) | Donors [2]: +++ (50%-70%, +++)

60 (VVDKTLLLV; listed as Homo sapiens) [compound 60]
Donors: 100% | Wells [1]: +++ (50%-70%, +++) | Donors [2]: ++++ (>70 = ++++)

61 (TLISRLPAV; listed as Homo sapiens) [compound 61]
Wells [1]: + (<20% = +) | Donors [2]: +++ (50%-70%, +++)

62 (ILFPDIIARA; listed as Homo sapiens) [compound 62]
Wells [1]: ++ (20%-49% = ++) | Donors [2]: ++++ (>70 = ++++)

63 (SLAGDVALQQL; listed as Homo sapiens) [compound 63]
Wells [1]: + (<20% = +) | Donors [2]: ++ (20%-49% = ++)

64 (AMLAVLHTV; listed as Homo sapiens) [compound 64]
Wells [1]: + (<20% = +) | Donors [2]: +++ (50%-70%, +++)

65 (KVLEILHRV; listed as Homo sapiens) [compound 65]
Wells [1]: ++ (20%-49% = ++) | Donors [2]: +++ (50%-70%, +++)

66 (KIQEILTQV; listed as Homo sapiens) [compound 66]
Wells [1]: + (<20% = +) | Donors [2]: +++ (50%-70%, +++)

67 (ILQDRLNQV; listed as Homo sapiens) [compound 67]
Wells [1]: + (<20% = +) | Donors [2]: ++ (20%-49% = ++)

68 (YVYQNNIYL; listed as Homo sapiens) [compound 68]
Wells [1]: + (<20% = +) | Donors [2]: + (<20% = +)

69 (AMSSKFFLV; listed as Homo sapiens) [compound 69]
Wells [1]: ++ (20%-49% = ++) | Donors [2]: +++ (50%-70%, +++)

Source: patent publication US10487116B2, “Immunotherapy against several tumors, such as lung cancer, including NSCLC” (IMMATICS BIOTECHNOLOGIES GMBH, priority 2013, dated 2019)
